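96-well plates; 48 h exposure; 5 concentrations. Endpoints by linear interpolation between flanking doses. Not reached: highest tested concentration assigned. GI50 is the concentration that inhibits growth by half. TGI marks complete inhibition of growth.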
How the values were obtained:
Test in all cases: DTP human tumour cell line panel, 48 h
OVCAR-4 ovarian = system: OVCAR-4 ovarian
OVCAR-5 ovarian = system: OVCAR-5 ovarian
IGROV1 ovarian = system: IGROV1 ovarian
A498 renal = system: A498 renal
ACHN renal = system: ACHN renal
NCI-H460 lung = system: NCI-H460 lung
NCI-H522 lung = system: NCI-H522 lung
786-0 renal = system: 786-0 renal
MOLT-4 leukemia = system: MOLT-4 leukemia
SNB-78 CNS = system: SNB-78 CNS

SMILES	GI50 (OVCAR-4 ovarian) [µM]	TGI (OVCAR-4 ovarian) [µM]	GI50 (OVCAR-5 ovarian) [µM]	TGI (OVCAR-5 ovarian) [µM]	GI50 (IGROV1 ovarian) [µM]	TGI (IGROV1 ovarian) [µM]	GI50 (A498 renal) [µM]	TGI (A498 renal) [µM]	GI50 (ACHN renal) [µM]	TGI (ACHN renal) [µM]	GI50 (NCI-H460 lung) [µM]	TGI (NCI-H460 lung) [µM]	GI50 (NCI-H522 lung) [µM]	TGI (NCI-H522 lung) [µM]	GI50 (786-0 renal) [µM]	TGI (786-0 renal) [µM]	GI50 (MOLT-4 leukemia) [µM]	TGI (MOLT-4 leukemia) [µM]	GI50 (SNB-78 CNS) [µM]	TGI (SNB-78 CNS) [µM]
Brc1ccc(Nc2nc3ccccc3nc2Nc2ccc(Br)cc2)cc1	1.25	8.98	1.03	5.15	1.43	13.5	0.0513	2.75	0.583	3.22	0.39	2.56	0.449	3.25	1.73	5.9	1.15	9.45	–	–
CC(=O)OCC1OC([Se-])C(OC(C)=O)C(OC(C)=O)C1OC(C)=O.N#CCC[PH+](CCC#N)CCC#N.[Au+] (centres undefined)	13.8	65.8	9.81	41.9	24.5	> 81.6	–	–	7.06	39.4	4.95	29.6	5.75	40.8	6.3	53.3	2.75	14.1	20.1	79.3
C=C1C(=O)c2cc3c(cc2C(c2cc(OC)c(OC)c(OC)c2)[C@@H]1C(=O)O)OCO3 (some centres undefined)	–	–	–	–	–	> 100	–	> 100	–	> 100	–	> 100	–	> 100	–	> 100	–	> 100	–	> 100
NCCCNc1nc2ccc(Cl)cc2c2c(=O)c3cc(F)ccc3sc12	4.3	18	3.38	14.3	1.91	5.1	6.1	21	1.94	4	1.73	3.46	2.26	5.67	1.92	5.88	1.87	3.95	–	–
CCOC(=O)[C@@H](C)C[C@H](Cc1ccccc1)NC(=O)c1csc([C@@H](C[C@H](C(C)C)N(C)C(=O)[C@@H](NC(=O)[C@H]2C[C@H](O)CCN2C)C(C)C)OC(C)=O)n1	0.0259	> 16.7	0.015	> 16.7	0.00209	> 16.7	0.00721	0.0879	0.106	> 16.7	0.0063	> 16.7	< 0.00167	0.0367	0.0273	> 16.7	0.00714	> 16.7	–	–
O=C1/C(=C\c2ccccc2)CN(C(=O)c2ccccc2)C/C1=C\c1ccccc1	2.98	11.4	2.24	6.83	2.66	6.57	13	27.4	1.73	3.33	2.8	8.48	2.29	5.27	2	4.44	3.19	43.6	–	–
COC(=O)c1nc(C(=O)OC)c2c([nH]c3ccccc32)c1C(=O)OC	–	–	–	> 100	–	> 100	–	> 100	–	–	–	> 100	–	–	–	> 100	–	> 100	–	> 100
OCCCc1cnco1	–	> 100	–	> 100	–	> 100	–	> 100	–	> 100	–	> 100	–	–	–	> 100	–	> 100	–	> 100

From PubChem BioAssay (NCI)
